pIC50: −log10 of the molar value.
Molecular target: integrin αIIbβ3 (Homo sapiens, UniProt P05106+P08514)
Type: binding

Sequence of integrin αIIbβ3 (P08514 32-887): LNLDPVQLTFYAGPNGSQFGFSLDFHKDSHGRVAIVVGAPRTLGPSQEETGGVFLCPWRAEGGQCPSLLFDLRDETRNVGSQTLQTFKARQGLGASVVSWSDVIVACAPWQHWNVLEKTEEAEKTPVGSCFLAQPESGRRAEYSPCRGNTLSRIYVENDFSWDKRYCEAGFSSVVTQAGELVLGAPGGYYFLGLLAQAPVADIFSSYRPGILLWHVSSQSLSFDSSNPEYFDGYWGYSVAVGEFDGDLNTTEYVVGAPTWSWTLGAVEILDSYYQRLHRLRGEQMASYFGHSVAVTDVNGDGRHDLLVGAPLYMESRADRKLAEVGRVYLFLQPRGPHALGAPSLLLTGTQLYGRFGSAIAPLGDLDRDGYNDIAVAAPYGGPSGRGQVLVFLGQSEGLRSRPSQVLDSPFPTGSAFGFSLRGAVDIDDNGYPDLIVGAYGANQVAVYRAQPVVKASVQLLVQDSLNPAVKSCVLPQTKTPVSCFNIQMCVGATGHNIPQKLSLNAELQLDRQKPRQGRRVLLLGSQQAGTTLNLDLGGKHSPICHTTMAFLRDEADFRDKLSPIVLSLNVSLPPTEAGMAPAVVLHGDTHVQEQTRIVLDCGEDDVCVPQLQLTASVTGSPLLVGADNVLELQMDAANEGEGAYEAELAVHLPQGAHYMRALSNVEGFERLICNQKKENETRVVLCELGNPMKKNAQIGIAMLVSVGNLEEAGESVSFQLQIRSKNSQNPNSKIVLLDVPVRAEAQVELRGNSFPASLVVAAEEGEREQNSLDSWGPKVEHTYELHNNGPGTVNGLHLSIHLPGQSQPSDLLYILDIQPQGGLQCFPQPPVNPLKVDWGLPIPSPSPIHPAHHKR
Sequence of integrin αIIbβ3 (P08514 891-1039): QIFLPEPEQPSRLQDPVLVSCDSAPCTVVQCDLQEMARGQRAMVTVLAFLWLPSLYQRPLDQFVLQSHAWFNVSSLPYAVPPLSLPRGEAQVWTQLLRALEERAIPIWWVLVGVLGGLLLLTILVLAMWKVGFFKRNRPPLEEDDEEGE
Sequence of integrin αIIbβ3 (P05106 27-788): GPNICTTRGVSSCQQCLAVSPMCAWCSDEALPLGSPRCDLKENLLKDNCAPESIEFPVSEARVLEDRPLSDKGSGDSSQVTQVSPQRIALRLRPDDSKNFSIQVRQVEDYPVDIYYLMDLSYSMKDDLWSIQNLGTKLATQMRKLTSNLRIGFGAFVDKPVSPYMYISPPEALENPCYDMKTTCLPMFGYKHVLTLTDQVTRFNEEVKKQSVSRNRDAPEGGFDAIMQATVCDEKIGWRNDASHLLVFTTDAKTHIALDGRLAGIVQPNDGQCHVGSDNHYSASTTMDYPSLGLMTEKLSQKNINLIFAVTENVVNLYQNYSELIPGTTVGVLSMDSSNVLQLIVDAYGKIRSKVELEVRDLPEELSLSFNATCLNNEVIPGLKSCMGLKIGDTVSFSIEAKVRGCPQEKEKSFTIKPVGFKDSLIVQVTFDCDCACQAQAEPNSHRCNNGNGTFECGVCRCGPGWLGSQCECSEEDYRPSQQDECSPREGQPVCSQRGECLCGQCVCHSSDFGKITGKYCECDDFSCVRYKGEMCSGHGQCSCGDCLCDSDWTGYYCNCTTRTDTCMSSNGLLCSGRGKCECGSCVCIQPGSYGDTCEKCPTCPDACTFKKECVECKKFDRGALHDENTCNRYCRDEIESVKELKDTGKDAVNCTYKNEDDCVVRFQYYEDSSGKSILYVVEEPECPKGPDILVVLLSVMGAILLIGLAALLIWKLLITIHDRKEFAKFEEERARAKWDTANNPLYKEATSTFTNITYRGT

pIC50: 5.51
Structure (SMILES): CCCC(=O)NC(Cc1ccc2cc(OCc3ccc(C(=N)N)cc3)ccc2c1)C(=O)O (stereo not shown) [ND-1, 2-butyramido-3-(6-((4-carbamimidoylbenzyl)oxy)naphthalen-2-yl)propanoic acid]

— article PMC5206433 (BioMed Research International, 2016)
